Test results published in paper PMC4485020 (The Journal of General Physiology, 2015).

Biological target: hTRPM3 (transient receptor potential melastatin 3) (Homo sapiens, UniProt Q9HCF6)
Format: cell-based

Sequence of hTRPM3 (transient receptor potential melastatin 3) (Q9HCF6 whole entry): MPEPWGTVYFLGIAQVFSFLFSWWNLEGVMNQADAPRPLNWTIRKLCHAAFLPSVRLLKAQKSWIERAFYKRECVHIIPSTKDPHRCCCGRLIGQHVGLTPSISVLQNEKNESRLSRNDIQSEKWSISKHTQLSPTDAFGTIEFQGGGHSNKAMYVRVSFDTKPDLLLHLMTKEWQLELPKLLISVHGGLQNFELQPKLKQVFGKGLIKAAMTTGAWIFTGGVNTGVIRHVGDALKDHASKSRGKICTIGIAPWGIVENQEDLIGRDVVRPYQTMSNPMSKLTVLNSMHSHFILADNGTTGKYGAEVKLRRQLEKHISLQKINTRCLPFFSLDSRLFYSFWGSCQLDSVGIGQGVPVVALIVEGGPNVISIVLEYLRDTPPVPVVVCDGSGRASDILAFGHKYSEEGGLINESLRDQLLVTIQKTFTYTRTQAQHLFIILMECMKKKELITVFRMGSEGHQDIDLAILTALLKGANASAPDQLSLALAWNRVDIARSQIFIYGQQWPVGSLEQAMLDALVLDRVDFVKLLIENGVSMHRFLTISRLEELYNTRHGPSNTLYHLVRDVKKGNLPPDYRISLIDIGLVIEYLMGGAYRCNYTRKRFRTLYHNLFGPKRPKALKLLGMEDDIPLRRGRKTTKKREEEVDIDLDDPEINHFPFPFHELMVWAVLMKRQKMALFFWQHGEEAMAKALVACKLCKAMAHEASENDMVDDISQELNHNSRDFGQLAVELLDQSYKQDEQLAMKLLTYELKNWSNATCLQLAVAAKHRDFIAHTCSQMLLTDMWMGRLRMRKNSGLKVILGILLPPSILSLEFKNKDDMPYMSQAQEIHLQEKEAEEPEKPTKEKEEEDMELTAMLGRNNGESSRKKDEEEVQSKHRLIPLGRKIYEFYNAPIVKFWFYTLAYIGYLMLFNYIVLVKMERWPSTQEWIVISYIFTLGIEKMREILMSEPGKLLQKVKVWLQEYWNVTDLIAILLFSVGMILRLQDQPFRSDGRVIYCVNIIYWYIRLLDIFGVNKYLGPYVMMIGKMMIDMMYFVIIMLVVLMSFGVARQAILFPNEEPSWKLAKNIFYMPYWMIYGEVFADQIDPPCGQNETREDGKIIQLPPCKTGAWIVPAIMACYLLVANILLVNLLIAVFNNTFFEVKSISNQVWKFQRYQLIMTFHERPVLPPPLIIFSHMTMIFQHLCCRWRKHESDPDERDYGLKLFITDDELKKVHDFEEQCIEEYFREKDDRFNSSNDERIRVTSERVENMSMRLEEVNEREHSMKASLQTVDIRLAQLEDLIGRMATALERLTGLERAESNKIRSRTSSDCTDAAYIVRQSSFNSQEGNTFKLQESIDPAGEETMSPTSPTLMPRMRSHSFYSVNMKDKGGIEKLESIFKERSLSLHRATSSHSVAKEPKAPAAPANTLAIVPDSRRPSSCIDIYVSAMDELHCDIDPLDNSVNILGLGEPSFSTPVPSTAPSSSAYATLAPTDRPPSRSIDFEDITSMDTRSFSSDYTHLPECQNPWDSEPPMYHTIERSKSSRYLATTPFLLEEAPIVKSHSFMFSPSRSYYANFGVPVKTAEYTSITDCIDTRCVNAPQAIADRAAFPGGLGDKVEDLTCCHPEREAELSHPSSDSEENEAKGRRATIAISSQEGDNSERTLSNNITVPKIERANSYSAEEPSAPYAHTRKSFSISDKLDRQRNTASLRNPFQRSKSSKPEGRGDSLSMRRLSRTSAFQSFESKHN

For `CCCCCCCC(=O)OC[C@H](COP(=O)(O)O[C@@H]1[C@H](O)[C@H](O)[C@@H](OP(=O)(O)O)[C@H](OP(=O)(O)O)[C@H]1O)OC(=O)CCCCCCC` [diC8 PI(4,5)P2], the EC50 was 18 µM.
